Experimental data as given in ChEMBL document CHEMBL1152340, “Flavonoid glucuronides and a chromone from the aquatic macrophyte Stratiotes aloides” (2009).
Activity calls are given as the source filed them. No cut-off for these calls is given here.

Assays:
SH-SY5Y [1] = experiment: Cytotoxicity against human SH-SY5Y cells after 4 days by DAPI staining method; assay type: functional, cell-based
[2] = Cytotoxicity against human PA-TU-8902 cells at 50 uM after 4 days by DAPI staining method relative to control; assay type: functional
SH-SY5Y [3] = experiment: Induction of apoptosis in human SH-SY5Y cells assessed as DNA fragmentation at 50 uM after 4 days by Hoechst 33342 method; assay type: functional, cell-based
SH-SY5Y [4] = experiment: Cytotoxicity against human SH-SY5Y cells at 50 uM after 4 days by DAPI staining method; assay type: functional
SH-SY5Y [5] = experiment: Cytotoxicity against human SH-SY5Y cells at 10 uM after 4 days by DAPI staining method; assay type: functional

O=C(O)[C@H]1O[C@@H](O[C@H]2[C@H](Oc3cc(O)c4c(=O)cc(-c5ccc(O)c(O)c5)oc4c3)O[C@H](CO)[C@@H](O)[C@@H]2O)[C@H](O)[C@@H](O)[C@@H]1O
Activity (SH-SY5Y [1]): Dose-dependent effect | Activity [2]: 20% | Activity (SH-SY5Y [3]): Active | Activity (SH-SY5Y [4]): 75% | Activity (SH-SY5Y [5]): 75%
